Data on five molecules can be found in US10682371B2, “Small molecule conjugates specifically activated in tumor microenvironment for targeting and use thereof” (priority 2014, dated 2020).

Where two headings read alike, the source gives them in different places.

The test system of assay [1] is D121 lung tumor cells. It counts as in vivo, C57 mice. The conditions noted are these: for Treatment effects on C57 mice, in words: compared to the control group and the other treatment groups; for Effect together with PDL1-antibody in promoting immunization and treatment, in words: combination with PDL1-antibody. In outline:
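Endpoint is tumor inhibition rate from tumor size (mm^3) after weekly drug treatment for 4 weeks, begun once s.c. tumors from 10^6 live D121 cells reached 0.3-0.4 cm. Before challenge, C57 mice received three i.p. doses of 5×10^5 irradiated D121 cells, two weeks apart, or saline.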

Assay [2] deals with tumor CD8+ T cells. The format is in vivo, C57 mice. In outline:
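Tumour tissue homogenised and single cells filtered, washed, then stained 1 h at ambient temperature with CD45-PE and CD8-FITC antibodies. After washes in PBS with 1% FBS, flow cytometry gave the fraction of CD8⁺ cells among CD45⁺ leucocytes.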

In assay [3] the test system is Human breast cancer MDA-MB435 tumor tissue homogenate. The format is biochemical. The conditions noted are these: for Activation ratio (%) in homogenates from different tumor tissues: Human breast cancer MDA-MB435, 1 mg/ml. The procedure:
(§1) At 37 °C, sample compounds were added into 100 μg acidized tumor tissue homogenates (pH6.0) in a concentration of 1 mg/ml.
(§2) At 37 °C, sample compounds were added into 100 μg acidized human breast cancer (MDA-MB435) tumor tissue homogenates (pH6.0) in a concentration of 1 mg/ml.
(§3) […], sample compounds were added into 100 μg acidized tumor tissue homogenates (pH6.0) in a concentration of 1 mg/ml.
as §2
(§4) At 37 °C, sample compounds were added into 100 μg acidized tumor tissue homogenates in a concentration of 1 mg/ml.
(§5) In the experiments, at 37 °C, compounds were added into proteases in 100 μg acidized tumor tissue homogenates in a concentration of 1 mg/ml. […] Meanwhile certain compounds produced in the screening were compared and their activation efficiency in same tissue was analyzed.
(§6) At 37° C., compounds were added into proteases in 100 μg acidized tumor tissue homogenates in a concentration of 1 mg/ml.

The subject of assay [4] is Human heart. It counts as biochemical. The conditions noted are these: Human heart homogenate; 1 mg/ml compound.
The test system of assay [5] is Human chronic leukemia K562 tumor tissue homogenate. The format is biochemical. Particulars: for Activation ratio (%) in homogenates from different tumor tissues: Human chronic leukemia K562, 1 mg/ml. The procedure:
as §1, §3, §4, §5, §6

Assay [6] concerns Human liver cancer Hepg2 tumor tissue homogenate. It counts as biochemical. Particulars: for Activation ratio (%) in homogenates from different tumor tissues: Human liver cancer Hepg2, 1 mg/ml. The procedure: as §1, §3, §4, §5, §6
In assay [7] the test system is Human non-small cell lung cancer A549 tumor tissue homogenate. It counts as biochemical. Particulars: for Activation ratio (%) in homogenates from different tumor tissues: Human non-small cell lung cancer A549, 1 mg/ml. The procedure: as §1, §3, §4, §5, §6
The test system of assay [8] is Human ovarian cancer SK-OV-3 tumor tissue homogenate. The format is biochemical. Particulars: for Activation ratio (%) in homogenates from different tumor tissues: Human ovarian cancer SK-OV-3, 1 mg/ml. The procedure:
as §1, §3, §4, §5, §6

Assay [9] concerns Human pancreatic cancer Panc-1 tumor tissue homogenate. The format is biochemical. The conditions noted are these: for Activation ratio (%) in homogenates from different tumor tissues: Human pancreatic cancer Panc-1, 1 mg/ml. The procedure: as §1, §3, §4, §5, §6
Assay [10] has as its system Human prostate cancer PC-3 tumor tissue homogenate. The format is biochemical. The conditions noted are these: for Activation ratio (%) in homogenates from different tumor tissues: Human prostate cancer PC-3, 1 mg/ml. How it is done:
as §1, §3, §4, §5, §6

The subject of assay [11] is Human renal cancer OS-RC-2 tumor tissue homogenate. It counts as biochemical. Particulars: for Activation ratio (%) in homogenates from different tumor tissues: Human renal cancer OS-RC-2, 1 mg/ml. How it is done: as §1, §3, §4, §5, §6
The test system of assay [12] is Human colon cancer HT-29 tumor tissue homogenate. It counts as biochemical. The conditions noted are these: Human colon cancer HT-29, 1 mg/ml. How it is done: as §1, §3, §4, §5, §6
[13] abbreviates: immunized C57 mice, drugs 13.2 μmol/kg, PDL1 antibody 5 μg/kg, weekly for 4 weeks.
[14] abbreviates: ratio of CD8 positive cells in CD45 positive cells of tumor, flow cytometry, drugs 13.2 μmol/kg, PDL1 antibody 5 μg/kg.
Setting [15] is: Table 45, acidized homogenate, Docetaxel release by HPLC.
[16] abbreviates: Table 49, immunized C57 mice, D121, drugs 13.2 μmol/kg, PDL1 antibody 5 μg/kg, weekly for 4 weeks.

Consider `CO[C@@]12[C@H](COC(N)=O)C3=C(C(=O)C(C)=C(N)C3=O)N1C[C@@H]1N[C@@H]12` [mitomycin, reference compound], for which, in assay [1] (setting [13]), the “Size of tumor (mm^3) Day 18” value was determined as 1210.28 ± 368.45 mm^3 and the “inhibitory rate on tumor % Day 18” value is listed as 28.62%. Besides, in assay [2] (setting [14]), the “CD8: CD45 (%)” value amounted to 6.7%.
In the case of `COc1cccc2c1C(=O)c1c(O)c3c(c(O)c1C2=O)C[C@@](O)(C(C)=O)C[C@@H]3O[C@H]1C[C@H](NC(=O)OCc2ccc(NC(=O)[C@H](CC(N)=O)NC(=O)[C@H](C)NC(=O)[C@H](C)NC(=O)CCCCCN3C(=O)C=CC3=O)cc2)[C@H](O)[C@H](C)O1` [Compound S5, 4-N—(N—(N—(N-(6-maleimidocaproyl)-L-alanyl)-L-alanyl)-L-asparaginyl)-amino benzyl alcohol-daunorubicin-carbamate], the “Activation Efficiencies (%)” value worked out at 96.7% in assay [3] (Human breast cancer MDA-MB435 tumor tissue homogenate (30 μg/ml), 1 mg/ml compound); 3.5% in [4]; 73.5% in [5] (Human chronic leukemia K562 tumor tissue homogenate (30 μg/ml), 1 mg/ml compound); 67.3% in assay [6] (Human liver cancer Hepg2 tumor tissue homogenate (30 μg/ml), 1 mg/ml compound); 96.7% in [7] (Human non-small cell lung cancer A549 tumor tissue homogenate (30 μg/ml), 1 mg/ml compound); 97.4% in assay [8] (Human ovarian cancer SK-OV-3 tumor tissue homogenate (30 μg/ml), 1 mg/ml compound). In addition, the “Activation Efficiencies (%)” value in assay [9] (Human pancreatic cancer Panc-1 tumor tissue homogenate (30 μg/ml), 1 mg/ml compound) amounted to 97.4%; in assay [10] (Human prostate cancer PC-3 tumor tissue homogenate (30 μg/ml), 1 mg/ml compound), 97.3%; in assay [11] (Human renal cancer OS-RC-2 tumor tissue homogenate (30 μg/ml), 1 mg/ml compound), 98.3%. Also, the “Size of tumor (mm^3) Day 18” value in assay [1] (D121 immunized C57 mice, 13.2 μmol/kg weekly, PDL1 antibody 5 μg/kg where combined) is recorded as 379.75 ± 125.64 mm^3. For the same molecule, the “Treatment effects on C57 mice, in words” value in assay [1] is “greatly improved”. Moreover, the “CD8: CD45 (%)” value in assay [2] (D121 immunized C57 mice, 13.2 μmol/kg, ratio of CD8 positive cells in CD45 positive cells of tumor) came out at 17.4%.
Regarding `COCCOCC(=O)N[C@H](C)C(=O)N[C@H](C)C(=O)N[C@H](CC(N)=O)C(=O)Nc1ccc(COC(=O)N2[C@@H]3CN4C5=C(C(=O)C(N)=C(C)C5=O)[C@H](COC(N)=O)[C@]4(OC)[C@@H]32)cc1` [Compound E1, 2-(2-methoxyethoxy) acetyl-L-Ala-L-Ala-L-Asn-4-amino benzyl mitomycin], the “Activation ratio (%) in homogenates from different tumor tissues” value in assay [3] (37° C.) is reported as 97.3%; in assay [5] (37° C.) it was 74.5%; in [12] (37° C.) it was 94.2%; in assay [6] (37° C.) it was 94.6%; in assay [7] (37° C.) it was 97.4%; in assay [8] (37° C.), 93.5%. Besides, the “Activation ratio (%) in homogenates from different tumor tissues” value amounted to 89.4% in assay [9] (37° C.), 78.9% in assay [10] (37° C.) and 99.7% in assay [11] (37° C.). The “Size of tumor (mm^3) Day 18” value in assay [1] (setting [13]) is given as 237.60 ± 358.57 mm^3. For the same molecule, the “inhibitory rate on tumor % Day 18” value in assay [1] (setting [13]) is listed as 83.27%. Also, the “Effect together with PDL1-antibody in promoting immunization and treatment, in words” value in assay [1] is reported as “excellent synergistic effect”. Also, the “Treatment effects on C57 mice, in words” value in [1] was “greatly improved”. Moreover, the “CD8: CD45 (%)” value in assay [2] (setting [14]) is recorded as 18.4%.
As to `COCCOCCOCCOCCOCCOCC(=O)N[C@H](C)C(=O)N[C@H](C)C(=O)N[C@H](CC(N)=O)C(=O)Nc1ccc(COC(=O)N2[C@H]3[C@@H]2CN2C4=C(C(=O)C(N)=C(C)C4=O)[C@H](COC(N)=O)[C@]32OC)cc1` [Compound E2], the “Activation ratio (%) in homogenates from different tumor tissues” value in [3] (37° C.) was 90.6%; in [12] (37° C.), 96.1%; in assay [6] (37° C.), 94.8%; in [7] (37° C.), 96.4%; in assay [8] (37° C.) it was 97.6%; in assay [9] (37° C.), 84.6%. Moreover, the “Activation ratio (%) in homogenates from different tumor tissues” value stood at 86.4% in [10] (37° C.) and 94.5% in assay [11] (37° C.). The “Size of tumor (mm^3) Day 18” value in assay [1] (setting [13]) came to 331.57 ± 124.45 mm^3. Moreover, the “inhibitory rate on tumor % Day 18” value in assay [1] (setting [13]) is listed as 83.87%. Also, the “Treatment effects on C57 mice, in words” value in [1] was “greatly improved”. In assay [2] (setting [14]), the “CD8: CD45 (%)” value turned out to be 19.7%.
Regarding `COCCOCC(=O)N[C@H](C)C(=O)N[C@H](C)C(=O)N[C@H](CC(N)=O)C(=O)Nc1ccc(COC(=O)OC(C(=O)OC2C[C@@]3(O)[C@@H](OC(=O)c4ccccc4)[C@H]4[C@](C)(C(=O)[C@H](O)C(=C2C)C3(C)C)[C@@H](O)CC2OC[C@]24OC(C)=O)[C@@H](NC(=O)OC(C)(C)C)c2ccccc2)cc1` (stereo partly drawn) [Compound D1, 2-(2-methoxyethoxy) acetyl-L-Ala-L-Ala-L-Asn-4-amino benzyl-Docetaxel], the “Activation ratio (%) in homogenates from different tumor tissues” value amounted to 83.07% in assay [3] (setting [15]); 68.23% in [5] (setting [15]); 71.46% in assay [12] (setting [15]); 85.77% in assay [6] (setting [15]); 77.76% in [7] (setting [15]); 79.56% in [8] (setting [15]). The “Activation ratio (%) in homogenates from different tumor tissues” value is 85.32% in assay [9] (setting [15]), 87.57% in assay [10] (setting [15]) and 77.76% in [11] (setting [15]). The “Size of tumor (mm^3) Day 18” value in [1] (setting [16]) is recorded as 324.45 mm^3. Further, the “inhibitory rate on tumor % Day 18” value in assay [1] (setting [16]) is 77.2%. Further, the “Effect together with PDL1-antibody in promoting immunization and treatment, in words” value in [1] is “excellent synergistic effect”. The “Treatment effects on C57 mice, in words” value in [1] was “greatly improved”. The “CD8: CD45 (%)” value in [2] (Table 49, CD8 positive cells in CD45 positive cells of tumor, flow cytometry, drugs 13.2 μmol/kg, PDL1 antibody 5 μg/kg) was 18.5%.
